Experimental data as given in patent KR20140134170A, “신경염증 질환의 예방 또는 치료용 약학 조성물” (이화여자대학교 산학협력단, priority 2013, dated 2014).

Assays:
TNF-α [1] = assay: Serum TNF-α in LPS systemic inflammation mice (sandwich ELISA); format: in vivo, mouse; conditions: 3 h after LPS
p38 = p38 activation in LPS-activated BV2 microglia (western blot, p-p38); format: cell-based, mouse; conditions: LPS 100 ng/ml 3 h, compound 1 h before LPS
[2] = Brain infarct volume in ischemic stroke model MCAo/Rep (TTC staining); format: in vivo, rat; conditions: 5 mg/kg i.p. once immediately after reperfusion, 22 h after reperfusion
TNF-α [3] = assay: TNF-α release from LPS-activated BV2 microglia (sandwich ELISA); format: cell-based, mouse; conditions: LPS 100 ng/ml, compound 1 h before LPS
IL-6 = IL-6 production by LPS-activated BV2 microglia (sandwich ELISA); format: cell-based, mouse; conditions: LPS 100 ng/ml, compound 1 h before LPS
ERK = ERK activation in LPS-activated BV2 microglia (western blot, p-ERK); format: cell-based, mouse; conditions: LPS 100 ng/ml 3 h, compound 1 h before LPS
AP-1 = AP-1 DNA complex formation in LPS-activated BV2 microglia (EMSA); format: cell-based, mouse; conditions: LPS 100 ng/ml 3 h, compound 1 h before LPS
[4] = Neurological score in ischemic stroke model MCAo/Rep; format: in vivo, rat; conditions: 5 mg/kg i.p. once immediately after reperfusion; vs control; P=0.0047
IL-10 = IL-10 production by LPS-activated BV2 microglia (sandwich ELISA); format: cell-based, mouse; conditions: LPS 100 ng/ml, compound 1 h before LPS
[5] = test system: intracellular reactive oxygen species [세포내 활성산소종 (reactive oxygen species; ROS)]; assay: Intracellular reactive oxygen species in LPS-activated BV2 microglia (H2DCF-DA fluorescence); format: cell-based, mouse
TNF-α [6] = assay: TNF-α producing cells in ischemic stroke model MCAo/Rep (immunohistochemistry); format: in vivo, rat; conditions: 5 mg/kg i.p. once immediately after reperfusion; stroke hemisphere; 22 h after reperfusion; stroke control 648.3±64.70; P<0.05
TNF-α [7] = assay: TNF-α protein expression in cerebral cortex of LPS systemic inflammation mice (western blot); format: in vivo, mouse; conditions: 3 h after LPS, vs vehicle
JNK = JNK activation in LPS-activated BV2 microglia (western blot, p-JNK); format: cell-based, mouse; conditions: LPS 100 ng/ml 3 h, compound 1 h before LPS
microglia [소교세포] [8] = assay: Microglial activation in cerebral cortex of LPS systemic inflammation mice (Iba1 immunofluorescence); format: in vivo, mouse; conditions: 3 h after LPS
nitric oxide [산화질소] = assay: Nitric oxide production by LPS-activated BV2 microglia (Griess reaction); format: cell-based, mouse; conditions: LPS 100 ng/ml, compound 1 h before LPS
microglia [소교세포] [9] = assay: Microglial activation in ischemic stroke model MCAo/Rep (Iba-1 immunohistochemistry); format: in vivo, rat; conditions: 5 mg/kg i.p. once immediately after reperfusion; stroke hemisphere; 22 h after reperfusion; stroke control 138.8±7.4; P<0.01
brain cells [뇌세포] = assay: Brain cell damage in ischemic stroke model MCAo/Rep (Nissl staining); format: in vivo, rat; conditions: 5 mg/kg i.p. once immediately after reperfusion; cortex and striatum; 22 h after reperfusion
MK2 = MK2 activation in LPS-activated BV2 microglia (western blot, p-MK2); format: cell-based, mouse; conditions: LPS 100 ng/ml 3 h, compound 1 h before LPS
IL-1β = IL-1β protein expression in cerebral cortex of LPS systemic inflammation mice (western blot); format: in vivo, mouse; conditions: 3 h after LPS, vs vehicle
NF-κB = NF-κB DNA complex formation in LPS-activated BV2 microglia (EMSA); format: cell-based, mouse; conditions: LPS 100 ng/ml 3 h, compound 1 h before LPS
TNF-α [10] = assay: Cerebrospinal fluid TNF-α in LPS systemic inflammation mice (sandwich ELISA); format: in vivo, mouse; conditions: vs vehicle

With `COc1ccc(S(=O)(=O)N2Cc3ccccc3C[C@@H]2C(=O)NO)cc1` [본 발명의 화합물, (3R)-(+)-[2-(4-메톡시벤젠설포닐)-1,2,3,4-테트라하이드로이소퀴놀린-3-하이드록사메이트] the “serum TNF-α level” value (TNF-α [1]; 5 mg/kg i.p. daily from 4 days before LPS 5 mg/kg i.p.) was “현저히 감소”, the “serum TNF-α level” value (TNF-α [1]; 1 and 5 mg/kg i.p. daily from 4 days before LPS 5 mg/kg i.p., dose dependence) was “용량의존적으로 TNF-α수준이 감소” and the “activated p38” value (p38) was “농도 의존적으로 감소함”. For the same compound, the “infarct volume (infarct volume / whole brain volume × 100)” value ([2]; MCAo/Rep control 29.17%) was 18.90%, the “decrease of infarct size vs control” value ([2]; P=0.0452) was about 35.21% and the TNF-α production (TNF-α [3]) was “현저하게 감소됨”. For the same compound, the IL-6 production (IL-6) was “농도 의존적으로 억제됨”, the “activated ERK” value (ERK) was “농도 의존적으로 감소함” and the AP-1 complex formation (AP-1) was “감소됨”. For the same compound, the “neurological score (maximum 18)” value [4] was “유의적 감소”, the IL-10 production (IL-10) was “생성을 증가시키는 것” and the “intracellular reactive oxygen species” value ([5]; compound at 10 μM or more, compared with control) was “대조군과 유사한 수준으로 감소됨”. The “intracellular reactive oxygen species” value ([5]; concentration dependence) was “농도 의존적으로 억제함”, the “number of TNF-α producing cells” value (TNF-α [6]) was 402.8±74.73 cells and the “TNF-α expression in cerebral cortex” value (TNF-α [7]; 1 mg/kg i.p.) was “비이클 투여와 차이가 없었으나”. For the same compound, the “decrease of TNF-α expression in cerebral cortex” value (TNF-α [7]; 5 mg/kg i.p.) was 40%, the “activated JNK” value (JNK) was “농도 의존적으로 감소함” and the “number of activated microglia” value (microglia [소교세포] [8]; 1 mg/kg i.p., vs vehicle) was “비이클 투여와 차이가 없었으나”. The “number of activated Iba1-labelled cells (microglia)” value (microglia [소교세포] [8]; 5 mg/kg i.p., area 500 μm2, control 10.12±1.45, LPS 41.17±2.95, p<0.01 vs vehicle) was 20.0±3.82, the nitric oxide production (nitric oxide [산화질소]) was “농도 의존적으로 억제됨” and the “number of activated microglia” value (microglia [소교세포] [9]) was 47.67±10.73 cells. For the same compound, the “brain cell damage by stroke” value (brain cells [뇌세포]) was “극명하게 감소”, the “activated MK2” value (MK2) was “농도 의존적으로 감소함” and the “IL-1β expression in cerebral cortex” value (IL-1β; 1 mg/kg i.p.) was “비이클 투여와 차이가 없었으나”. The “decrease of IL-1β expression in cerebral cortex” value (IL-1β; 5 mg/kg i.p.) was 50%, the NF-κB complex formation (NF-κB) was “감소됨” and the “cerebrospinal fluid TNF-α level” value (TNF-α [10]; 1 mg/kg i.p. daily from 4 days before LPS) was “통계적으로 의미있는 TNF-α발현 감소”. The “cerebrospinal fluid TNF-α level” value (TNF-α [10]; 5 mg/kg i.p. daily from 4 days before LPS) was “통계적으로 의미있는 TNF-α발현 감소”.
